Results as given in PubChem BioAssay (NCI).
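GI50 is the concentration that inhibits growth by half. At the TGI there is no net growth.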

Key:
Assay in all cases: NCI tumour cell line growth inhibition, 384-well format; in the data active = GI50 below about 0.43 µM; inactive = the rest
HL-60(TB) leukemia = tested on: HL-60(TB) leukemia
U251 glioblastoma = tested on: U251 glioblastoma
SF-539 CNS = tested on: SF-539 CNS
SR leukemia = tested on: SR leukemia
ACHN renal = tested on: ACHN renal
SNB-75 CNS = tested on: SNB-75 CNS
CAKI-1 renal = tested on: CAKI-1 renal
OVCAR-8 ovarian = tested on: OVCAR-8 ovarian
SN12C renal = tested on: SN12C renal
HCT-116 colon = tested on: HCT-116 colon
KM12 colon = tested on: KM12 colon
TK-10 renal = tested on: TK-10 renal
SNB-19 CNS = tested on: SNB-19 CNS
OVCAR-3 ovarian = tested on: OVCAR-3 ovarian
PC-3 prostate = tested on: PC-3 prostate
UO-31 renal = tested on: UO-31 renal
SF-295 CNS = tested on: SF-295 CNS
IGROV1 ovarian = tested on: IGROV1 ovarian
MDA-MB-435 melanoma = tested on: MDA-MB-435 melanoma
SK-OV-3 ovarian = tested on: SK-OV-3 ovarian
HOP-62 NSCLC = tested on: HOP-62 NSCLC
786-0 renal = tested on: 786-0 renal
DU-145 prostate = tested on: DU-145 prostate
A498 renal = tested on: A498 renal
T-47D breast = tested on: T-47D breast
HOP-92 NSCLC = tested on: HOP-92 NSCLC
MCF7 breast = tested on: MCF7 breast
COLO 205 colon = tested on: COLO 205 colon
HCT-15 colon = tested on: HCT-15 colon
MDA-MB-231 breast = tested on: MDA-MB-231 breast
BT-549 breast = tested on: BT-549 breast
K-562 leukemia = tested on: K-562 leukemia
MDA-MB-468 breast = tested on: MDA-MB-468 breast
UACC-62 melanoma = tested on: UACC-62 melanoma
OVCAR-4 ovarian = tested on: OVCAR-4 ovarian
UACC-257 melanoma = tested on: UACC-257 melanoma
M14 melanoma = tested on: M14 melanoma
OVCAR-5 ovarian = tested on: OVCAR-5 ovarian
SK-MEL-5 melanoma = tested on: SK-MEL-5 melanoma
SF-268 CNS = tested on: SF-268 CNS
SW-620 colon = tested on: SW-620 colon
NCI-H460 NSCLC = tested on: NCI-H460 NSCLC
SK-MEL-2 melanoma = tested on: SK-MEL-2 melanoma
EKVX NSCLC = tested on: EKVX NSCLC
MALME-3M melanoma = tested on: MALME-3M melanoma
NCI-H23 lung = tested on: NCI-H23 lung
MOLT-4 leukemia = tested on: MOLT-4 leukemia
HS 578T breast = tested on: HS 578T breast
NCI-H226 lung = tested on: NCI-H226 lung
HT29 colon = tested on: HT29 colon
NCI-H322M lung = tested on: NCI-H322M lung
SK-MEL-28 melanoma = tested on: SK-MEL-28 melanoma
A549 NSCLC = tested on: A549 NSCLC
NCI-H522 lung = tested on: NCI-H522 lung

C[C@]12CC[C@@H]3c4ccc(O)cc4C[C@@H](CCCCCCCCCS(=O)CCCC(F)(F)C(F)(F)F)[C@H]3[C@@H]1CC[C@@H]2O (some centres not stated)
> 100 µM: TGI (HL-60(TB) leukemia) | TGI (U251 glioblastoma) | TGI (SF-539 CNS) | TGI (SR leukemia) | TGI (ACHN renal) | TGI (SNB-75 CNS) | TGI (CAKI-1 renal) | TGI (OVCAR-8 ovarian) | TGI (SN12C renal) | TGI (HCT-116 colon) | TGI (KM12 colon) | TGI (TK-10 renal) | TGI (SNB-19 CNS) | TGI (OVCAR-3 ovarian) | TGI (PC-3 prostate) | TGI (UO-31 renal) | TGI (SF-295 CNS) | TGI (IGROV1 ovarian) | TGI (MDA-MB-435 melanoma) | TGI (SK-OV-3 ovarian) | TGI (HOP-62 NSCLC) | TGI (786-0 renal) | TGI (DU-145 prostate) | TGI (A498 renal) | TGI (T-47D breast) | TGI (HOP-92 NSCLC) | TGI (MCF7 breast) | TGI (COLO 205 colon) | TGI (HCT-15 colon) | TGI (MDA-MB-231 breast) | TGI (BT-549 breast) | TGI (K-562 leukemia) | TGI (MDA-MB-468 breast) | TGI (UACC-62 melanoma) | TGI (OVCAR-4 ovarian) | TGI (UACC-257 melanoma) | TGI (M14 melanoma) | TGI (OVCAR-5 ovarian) | TGI (SK-MEL-5 melanoma) | TGI (SF-268 CNS) | TGI (SW-620 colon) | TGI (NCI-H460 NSCLC) | TGI (SK-MEL-2 melanoma) | TGI (EKVX NSCLC) | TGI (MALME-3M melanoma) | TGI (NCI-H23 lung) | TGI (MOLT-4 leukemia) | TGI (HS 578T breast) | TGI (NCI-H226 lung) | TGI (HT29 colon) | TGI (NCI-H322M lung) | TGI (SK-MEL-28 melanoma) | TGI (A549 NSCLC) | TGI (NCI-H522 lung)
inactive: GI50 (HL-60(TB) leukemia) > 100 µM | GI50 (U251 glioblastoma) > 100 µM | GI50 (SF-539 CNS) > 100 µM | GI50 (SR leukemia) > 100 µM | GI50 (ACHN renal) > 100 µM | GI50 (SNB-75 CNS) > 100 µM | GI50 (CAKI-1 renal) > 100 µM | GI50 (OVCAR-8 ovarian) > 100 µM | GI50 (SN12C renal) > 100 µM | GI50 (HCT-116 colon) > 100 µM | GI50 (KM12 colon) 75.8 µM | GI50 (TK-10 renal) > 100 µM | GI50 (SNB-19 CNS) > 100 µM | GI50 (OVCAR-3 ovarian) > 100 µM | GI50 (PC-3 prostate) > 100 µM | GI50 (UO-31 renal) > 100 µM | GI50 (SF-295 CNS) 9.39 µM | GI50 (IGROV1 ovarian) > 100 µM | GI50 (MDA-MB-435 melanoma) > 100 µM | GI50 (SK-OV-3 ovarian) > 100 µM | GI50 (HOP-62 NSCLC) > 100 µM | GI50 ([…]-0 renal) > 100 µM | GI50 (DU-145 prostate) > 100 µM | GI50 (A498 renal) > 100 µM | GI50 (T-47D breast) 1.93 µM | GI50 (HOP-92 NSCLC) > 100 µM | GI50 (COLO 205 colon) 77.1 µM | GI50 (HCT-15 colon) 67.4 µM | GI50 (MDA-MB-231 breast) > 100 µM | GI50 (BT-549 breast) > 100 µM | GI50 (K-562 leukemia) 7.51 µM | GI50 (MDA-MB-468 breast) 2.37 µM | GI50 (UACC-62 melanoma) > 100 µM | GI50 (OVCAR-4 ovarian) > 100 µM | GI50 (UACC-257 melanoma) > 100 µM | GI50 (M14 melanoma) > 100 µM | GI50 (OVCAR-5 ovarian) > 100 µM | GI50 (SK-MEL-5 melanoma) 27.4 µM | GI50 (SF-268 CNS) > 100 µM | GI50 (SW-620 colon) > 100 µM | GI50 (NCI-H460 NSCLC) > 100 µM | GI50 (SK-MEL-2 melanoma) > 100 µM | GI50 (EKVX NSCLC) > 100 µM | GI50 (MALME-3M melanoma) > 100 µM | GI50 (NCI-H23 lung) > 100 µM | GI50 (MOLT-4 leukemia) 8.42 µM | GI50 (HS 578T breast) > 100 µM | GI50 (NCI-H226 lung) > 100 µM | GI50 (HT29 colon) 49.9 µM | GI50 (NCI-H322M lung) 76.8 µM | GI50 (SK-MEL-28 melanoma) > 100 µM | GI50 (A549 NSCLC) > 100 µM | GI50 (NCI-H522 lung) > 100 µM
